Results published in US20260207592A1, “PHARMACEUTICAL SUSPENSION OF NILOTINIB” (RENATA PHARMACEUTICALS (IRELAND) LIMITED, priority 2022, published 2026).
Converted amounts (≈) assume the structure as drawn. Where a name gives a salt, the structure may show the parent alone.

How the values were obtained:
[1] = physchem
[2] = Selection of surfactants: API solubility with different surfactants; conditions: solubility not done, observation
[3] = physchem; conditions: 0.01N HCl, simulated gastric fluid
[4] = cited from earlier work

Compound	solubility [1] [µg/mL]	solubility ([1]; poloxamer 188 solution, 100 mg/ml, aqueous with cosolvent or surfactant or cyclodextrin) [µg/mL]	solubility ([1]; poloxamer 407 solution, 10 mg/ml, aqueous with cosolvent or surfactant or cyclodextrin) [µg/mL]	solubility ([1]; polysorbate 20 solution, 5 mg/ml, aqueous with cosolvent or surfactant or cyclodextrin) [µg/mL]	solubility ([2]; SLS, 5 mg/ml)	solubility ([2]; Span 80, 150 ml/ml)	solubility [3] [µg/mL]	solubility in alcohol (descriptive) ([4]; alcohol)	solubility in water ([4]; water) [µg/mL]	solubility in water (descriptive) ([4]; water)
Cc1cn(-c2cc(NC(=O)c3ccc(C)c(Nc4nccc(-c5cccnc5)n4)c3)cc(C(F)(F)F)c2)cn1 [API, Nilotinib Hydrochloride Monohydrate]	0.2	321	227	478	Not done (Large lump formed	Not done (phase separation observed	494			
Cc1cn(-c2cc(NC(=O)c3ccc(C)c(Nc4nccc(-c5cccnc5)n4)c3)cc(C(F)(F)F)c2)cn1 [Nilotinib, 4-Methyl-3-[[4-(3-pyridinyl)-2-pyrimidinyl]amino]-N-[5-(4-methyl-1H-imidazol-1-yl)-3-(trifluoromethyl)phenyl] benzamide]								slightly soluble	0.2 (≈ 0.378 µM)	very slightly soluble
